Results published in patent US11952349B2, “Anti-cancer nuclear hormone receptor-targeting compounds” (Nuvation Bio Inc., priority 2019, dated 2024).

How the values were obtained:
Human recombinant PARP1 = Human recombinant PARP1 (Homo sapiens, UniProt P09874); assay: RBC HotSpot PARP1 assay (radioisotope-based filter binding); assay type: biochemical; details: Table 9; read-out: PARP1
Experimental: The following methods are for evaluating the in vitro biology properties of the test articles. • a. RBC HotSpot Poly(ADP-ribose) Polymerases 1 (PARP1) and Poly(ADP-ribose) Polymerases 2 (PARP2) Assays: The assay was conducted at Reaction Biology Corporation (RBC; Malvern, PA). The assay principle is radioisotope-based filter binding assay where incorporation of radioisotope-labeled NAD^+ into the substrate captured on filter is detected after washout free NAD^+. Data were analyzed using Excel and GraphPad Prism software for IC50 curve fits. Each assay was conducted with PJ34 as a positive control. PARP1 assay: Human recombinant PARP1 at a final concentration of 2.5 nM was combined with histone H4 (20 μM) and test articles at various concentrations in reaction buffer (50 mM Tris-HCL, pH 8.0, 50 mM NaCl, 10 mM MgCl2, 1 mM DTT, 1% DMSO, and 20 μg/mL activated DNA). The solution was inoculated for 20 min at room temperature and the reaction initiated by adding [adenylate-^32P]-Nicotinamide Adenine Dinucleotide, ^32P-NAD^+ at a final concentration of 10 μM. After incubation for 2 hrs at room temperature, the reaction mixture was filtered and washed with 0.75% phosphoric acid for radioactivity detection. • ii. PARP2 assay: Human recombinant PARP2 at a final concentration of 2.5 nM was combined with histone H3 (20 μM) and test articles at various concentrations in reaction buffer (50 mM Tris-HCL, pH 8.0, 50 mM NaCl, 10 mM MgCl2, 1 mM DTT, 1% DMSO, and 20 μg/mL activated DNA). The solution was inoculated for 20 min at room temperature and the reaction was initiated by adding [adenylate-^32P]-Nicotinamide Adenine Dinucleotide, ^32P-NAD^+ at a final concentration of 10 μM. After incubation for 2 hrs at room temperature, the reaction mixture was filtered and washed with 0.75% phosphoric acid for radioactivity detection. • b. AR binding assay: AR in LNCaP cytosol was used for determining the binding affinity of test articles and the reference compound—progesterone (Sigma, Cat: E2785, St. Louis, MO). IC50 s were determined using 8 concentrations/compound. Cytosol is plated at 200 μg/well (100 μL) into a 96-well conical polypropylene plate (Agilent, Cat: 5042-1385, Santa Clara, CA) and mixed with 3 μL of test compound. After adding 100 μL of ^3H-methyltrienolone (PerkinElmer, Cat: NET590250UC, San Jose, CA), the plate was sealed and shaken at 300 rpm at 4° C. for 24 hours. Post incubation, 100 μL of radioligand adsorption buffer containing 10 mM Tris-HCl, pH 7.4; 1.5 mM EDTA; 1 mM DTT; 0.25% charcoal; 0.0025% dextran was added to individual wells. Plate was shaken for 15 min at 4° C. followed by centrifugation at 3000 rpm for 30 min at 4° C. 150 μL of supernatant is transferred into scint-tube (PerkinElmer, Cat: 6000192) and mixed with 2 mL of Ultima Gold Cocktail (PerkinElmer, Cat: 6013329). Radioactivity is counted using a TriCarb 2910 TR scintillation counter (PerkinElmer). Inhibition of the radioactivity by test articles was calculated using the equation below: % Inhibition=(1−(Assay well−Average_LC)/(Average_HC−Average_LC))×100%. • IC50 values (Table 6) were calculated and graphed using the model “log(inhibitor) vs. response—Variable slope” included in GraphPad Prism 5 (San Diego, CA). The Ki values were further calculated using the equation below where [L] is the radioligand concentration (1 nM) used in this study. Kd value was 0.332 nM. Ki=IC50/(1+[L]/Kd) • c. AR transactivation: Human AR cloned into a CMV vector backbone is used for the transactivation study. HEK-293 cells are plated at 80,000 cells per well of a 24 well plate in DME+5% csFBS. Twenty four hours later, the cells are transfected using Lipofectamine (Invitrogen, Carlsbad, CA) with 0.25 μg GRE-LUC, 0.01 μg CMV-LUC (renilla luciferase) and 25 ng of the AR in OPTIMEM medium. The cells are treated 24 hrs after transfection with various ligands (10^−12 to 10^−5 M final concentrations) and luciferase assay performed 48 hours after transfection. […]

[1] = target: T1, Progesterone Receptor (PR)-LBD (Homo sapiens, UniProt P06401); assay: PR coactivator antagonist assay; assay type: biochemical; details: Table 8; 10 nM progesterone; read-out: PR antagonism
T1 sequence (P06401 679-913 limits assumed): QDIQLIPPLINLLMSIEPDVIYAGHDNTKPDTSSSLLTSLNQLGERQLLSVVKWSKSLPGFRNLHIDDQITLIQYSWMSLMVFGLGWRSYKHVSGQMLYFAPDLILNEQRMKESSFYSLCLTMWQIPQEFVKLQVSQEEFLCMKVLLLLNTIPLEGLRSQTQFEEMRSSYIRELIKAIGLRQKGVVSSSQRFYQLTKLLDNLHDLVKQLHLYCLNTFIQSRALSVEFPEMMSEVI
Experimental: PR coactivator antagonist assay: Test compound (Top dose 10 μM, 4 fold serial dilution, 8 point dose response) and/or vehicle was incubated with the 2.5 nM Progesterone Receptor (PR)-LBD and coactivator peptide for 30 minutes at RT. Determination of the amount of complex formed is read spectrofluorimetrically (excitation: 337 nm, emission: 520/490 nm). Test compound-induced inhibition of 10 nM progesterone-induced fluorescence response by 50 percent or more (>50%) indicates receptor antagonist activity.

LNCap cells = assay: Cell viability assay (CellTiterGlo, 6 days) LNCap; assay type: cell-based; details: Homo sapiens, 144 h, Table 8
Experimental: Cell viability assay: LNCap, 22Rv1, and T47D cells were seeded at a density of 1500-2000 cells/well in 96 well plates, and a ‘T0’ (timepoint 0) was included along with the assay plate. The plates were then incubated at 37° C., 5% CO2 in a cell culture incubator overnight. On the next day, the ‘T0’ plate was assayed using CellTiterGlo (Promega, Inc) according to the manufacturer's instructions. The appropriate compounds were diluted in DMSO and added to the assay plate (final DMSO concentration of 0.2%) on the next day. The assay plates were incubated for 6 days at 37° C., 5% CO2. After the incubation period, the plates were assayed using CellTiterGlo (Promega, Inc) according to the manufacturer's instructions and luminescence was read on the EnVision plate reader. Inhibition the tested compounds was determined by the following formula: Inhibition rate (%)=(1−(RLU compound−RLU day0)/(RLU control−RLU day0))*100%. GraphPadPrism was used to analyze the data and determine absolute IC50 values.

Sequence of Human recombinant PARP1 (P09874 whole entry): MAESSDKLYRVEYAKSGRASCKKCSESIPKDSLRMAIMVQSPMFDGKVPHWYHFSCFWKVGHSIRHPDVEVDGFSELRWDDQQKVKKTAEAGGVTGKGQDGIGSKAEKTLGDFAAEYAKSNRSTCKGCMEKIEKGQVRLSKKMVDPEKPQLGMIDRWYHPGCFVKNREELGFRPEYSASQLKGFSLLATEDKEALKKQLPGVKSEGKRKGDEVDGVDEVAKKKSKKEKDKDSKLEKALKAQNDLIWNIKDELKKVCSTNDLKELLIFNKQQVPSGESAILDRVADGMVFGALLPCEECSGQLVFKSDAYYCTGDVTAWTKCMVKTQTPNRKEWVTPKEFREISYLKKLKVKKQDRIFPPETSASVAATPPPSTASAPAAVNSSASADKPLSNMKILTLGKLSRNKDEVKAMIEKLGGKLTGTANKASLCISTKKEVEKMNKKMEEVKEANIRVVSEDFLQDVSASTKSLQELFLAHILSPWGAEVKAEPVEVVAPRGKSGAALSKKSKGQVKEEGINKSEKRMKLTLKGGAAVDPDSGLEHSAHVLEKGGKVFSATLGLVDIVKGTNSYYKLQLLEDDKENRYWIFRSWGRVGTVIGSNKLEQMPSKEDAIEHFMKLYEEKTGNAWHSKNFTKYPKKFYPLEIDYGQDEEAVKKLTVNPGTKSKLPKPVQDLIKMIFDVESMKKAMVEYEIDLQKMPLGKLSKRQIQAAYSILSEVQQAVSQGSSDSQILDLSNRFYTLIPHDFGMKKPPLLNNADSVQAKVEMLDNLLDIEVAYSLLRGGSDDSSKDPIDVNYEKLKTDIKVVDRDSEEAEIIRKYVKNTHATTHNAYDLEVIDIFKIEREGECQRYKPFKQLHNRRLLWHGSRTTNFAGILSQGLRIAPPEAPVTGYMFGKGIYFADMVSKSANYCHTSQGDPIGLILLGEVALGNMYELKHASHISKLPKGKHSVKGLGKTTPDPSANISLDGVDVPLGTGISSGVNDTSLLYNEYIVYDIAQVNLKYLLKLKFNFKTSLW

For `CC#C[C@]1(O)CC[C@H]2[C@@H]3CCC4=CC(=O)CCC4=C3[C@@H](c3ccc(N(C)CCCCCC(=O)NCCOCCOCC(=O)N4CCN(C(=O)c5cc(Cc6n[nH]c(=O)c7ccccc67)ccc5F)CC4)cc3)C[C@@]21C` [Compound 1429, N-(2-(2-(2-(4-(2-fluoro-5-((4-oxo-3,4-dihydrophthalazin-1-yl)methyl)benzoyl)piperazin-1-yl)-2-oxoethoxy)ethoxy)ethyl)-6-((4-((8S,11R,13S,14S,17S)-17-hydroxy-13-methyl-3-oxo-17-(prop-1-ynyl)-2,3,6,7,8,11,12,13,14,15,16,17-dodecahydro-1H-cyclopenta[a]phenanthren-11-yl)phenyl)(methyl)amino)hexanamide], the IC50 (Human recombinant PARP1) was < 0.001 µM, the IC50 [1] was < 0.01 µM and the IC50 (LNCap cells) was > 10 µM.
